In US6855807B1 (priority 1999, dated 2005):
Like-named read-outs stand apart in the source and are kept apart here.

What was measured:
kappa opioid receptor = biological target: T1, kappa opioid receptor (Rattus norvegicus, UniProt P34975); experiment: biochemical; assay type: binding
T1 construct: expressed in transfected cells; host or cells: HEK293

kappa-delta heterodimer = biological target: T2, kappa-delta heterodimer (UniProt P32300+P34975); experiment: biochemical; assay type: binding, rat kappa, mouse delta
T2 construct: myc; FLAG; expressed in transfected cells; host or cells: HEK293
T2 sequence (P34975 whole entry): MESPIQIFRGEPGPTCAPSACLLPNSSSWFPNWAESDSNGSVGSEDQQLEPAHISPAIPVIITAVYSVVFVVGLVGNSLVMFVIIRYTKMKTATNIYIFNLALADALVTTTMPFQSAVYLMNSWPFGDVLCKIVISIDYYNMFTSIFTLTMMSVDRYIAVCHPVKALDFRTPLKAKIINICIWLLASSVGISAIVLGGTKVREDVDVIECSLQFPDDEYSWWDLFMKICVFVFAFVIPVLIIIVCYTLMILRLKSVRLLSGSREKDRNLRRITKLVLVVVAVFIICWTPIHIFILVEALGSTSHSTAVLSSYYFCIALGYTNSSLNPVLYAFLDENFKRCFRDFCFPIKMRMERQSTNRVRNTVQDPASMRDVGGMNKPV
T2 sequence (P32300 whole entry): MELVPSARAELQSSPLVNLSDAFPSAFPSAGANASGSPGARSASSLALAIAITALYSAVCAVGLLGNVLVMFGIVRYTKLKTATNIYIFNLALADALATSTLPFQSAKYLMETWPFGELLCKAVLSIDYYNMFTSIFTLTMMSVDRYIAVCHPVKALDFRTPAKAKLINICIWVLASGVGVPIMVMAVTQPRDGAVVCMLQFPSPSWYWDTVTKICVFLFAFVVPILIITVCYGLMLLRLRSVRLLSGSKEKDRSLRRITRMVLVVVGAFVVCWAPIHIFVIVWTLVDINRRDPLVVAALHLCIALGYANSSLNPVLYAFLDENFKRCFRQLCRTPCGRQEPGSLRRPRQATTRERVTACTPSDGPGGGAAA

T1 sequence (P34975 whole entry): as the sequence (P34975 whole entry) above

SMILES | Ki (kappa opioid receptor; read-out: Kappa (Ki)) | Ki (kappa-delta heterodimer; read-out: Kappa-Delta (Ki)) | Ki (kappa opioid receptor) | Ki (kappa-delta heterodimer; Kappa-Delta (Ki)) | affinity of kappa receptors (in words) (kappa opioid receptor)
O=C1C(=Cc2ccccc2)C[C@@]2(O)[C@H]3Cc4ccc(O)c5c4[C@@]2(CCN3CC2CC2)[C@H]1O5 [BNTX, 7-Benzylidenenaltrexone] | 172 ± 19 nM | 98 ± 19 nM | – | – | –
CCC12CCN(CC3(O)CC3)C(Cc3ccc(O)cc31)C2(C)C (stereo not shown) [Bremazocine] | – | – | 0.4 ± 0.11 nM | 1.2 ± 0.1 nM | –
CC[C@]12CCN(CC3CC3)[C@H](C(=O)c3ccc(O)cc31)[C@@H]2C [EKC, ethylketocyclazocine] | – | – | 5.7 ± 0.79 nM | 2.6 ± 0.2 nM | –
Oc1ccc2c3c1O[C@H]1c4[nH]c5ccccc5c4C[C@@]4(O)[C@@H](C2)N(CC2CC2)CC[C@]314 [Naltrinole] | – | – | 44.3 ± 1.1 nM | 44 ± 1.1 nM | –
Oc1ccc2c3c1O[C@H]1c4[nH]c5c(c4C[C@@]4(O)[C@@H](C2)N(CC2CC2)CC[C@]314)C[C@@]1(O)[C@H]2Cc3ccc(O)c4c3[C@@]1(CCN2CC1CC1)[C@H]5O4 [nor-BNI, nor-binaltorphimine] | – | – | 4.9 ± 0.3 nM | – | high affinities
